According to patent US10757944B2, “Ozone treatment for elimination of pathogens” (priority 2016, dated 2020):

Experiments:
[1] = Cannabinoid and terpene content of cannabis flower before and after ozone exposure; format: physicochemical; conditions: for % Change (decrease): 60 minute exposure to 200 ppm of ozone vs before; for % After Ozone Exposure (60 minutes): content of cannabis flower after 60 minute exposure to 200 ppm of ozone; for % Before Ozone Exposure (0 minutes): content of cannabis flower before exposure
Protocol: Cannabinoid and terpene content of cannabis flower was measured before exposure to 200 ppm of ozone in an embodiment of a disclosed pathogen reduction device and after a 60 minute exposure. The results are disclosed in Table 7 by the different cannabinoids and terpenes measured.

[2] = Pesticide residue on hemp flower after ozone treatment (AOAC official method 2007.01); format: physicochemical; conditions: for Sample 1: residue on pesticide treated hemp exposed to ozone / Sample 2: residue on pesticide treated hemp exposed to ozone / Sample 3: residue on pesticide treated hemp exposed to ozone: 200 ppm ozone for 20 minutes; for average reduction of pesticide across the three samples tested: hemp, 20 minutes at 200 ppm ozone; for Control: residue on pesticide treated hemp not exposed to ozone: no ozone exposure
Protocol: The ability of ozone to reduce pesticide residue using an embodiment of a disclosed pathogen reduction device was evaluated. In this series of experiments, Myclobutanil and Bifenazate were purchased in liquid formulations (Myclobutanil at 19.7% from Dow AgroSciences as Eagle® 20EW and Bifenazate at 22.6% from Chemtura Corporation as Floramite® SC). The pesticides were sprayed on homogenized hemp flower and air dried. Dried hemp flower with pesticide was then exposed to treatment with 200 ppm of ozone for 20 minutes. Non pesticide treated hemp, pesticide treated hemp, and pesticide treated hemp that was exposed to ozone were analyzed by spectrometry using AOAC official method 2007.01. The results are disclosed below in Table 3 were Matrix Blank is non pesticide treated hemp (negative control), Control is pesticide treated hemp that was not exposed to ozone, and Sample 1, Sample 2, and Sample 3 are three samples of pesticide treated hemp that was exposed to ozone at 200 ppm for 20 minutes.

| Compound | % Change (decrease) [1] [%] | % After Ozone Exposure (60 minutes) [1] [%] | % Before Ozone Exposure (0 minutes) [1] [%] | Sample 1: residue on pesticide treated hemp exposed to ozone [2] [mg/kg] | Sample 2: residue on pesticide treated hemp exposed to ozone [2] [mg/kg] | Sample 3: residue on pesticide treated hemp exposed to ozone [2] [mg/kg] | average reduction of pesticide across the three samples tested [2] [ppm] | Control: residue on pesticide treated hemp not exposed to ozone [2] [mg/kg] |
| --- | --- | --- | --- | --- | --- | --- | --- | --- |
| CCCCCc1cc(O)c(C/C=C(\C)CCC=C(C)C)c(O)c1C(=O)O [CBGA] | 13.4 | 0.552 | 0.638 | – | – | – | – | – |
| C=C(C)[C@@H]1CCC(C)=C[C@H]1c1c(O)cc(CCCCC)c(C(=O)O)c1O [CBDA] | 5.4 | 0.035 | 0.037 | – | – | – | – | – |
| CCCCCc1cc2c(c(O)c1C(=O)O)[C@@H]1C=C(C)CC[C@H]1C(C)(C)O2 [THCA] | 7.1 | 15.7 | 16.9 | – | – | – | – | – |
| COc1ccc(-c2ccccc2)cc1NNC(=O)OC(C)C [Bifenazate] | – | – | – | 0.28 | 0.21 | 0.22 | 0.1 | 0.34 |
| CCCCC(C#N)(Cn1cncn1)c1ccc(Cl)cc1 (stereo not shown) [Myclobutanil] | – | – | – | 0.39 | 0.28 | 0.28 | 0.18 | 0.5 |
| CCCCCc1cc(O)c2c(c1)OC(C)(C)[C@@H]1CCC(C)=C[C@@H]21 [THC] | 9.2 | 0.680 | 0.749 | – | – | – | – | – |
| CCCCCc1cc2c(c(O)c1C(=O)O)-c1cc(C)ccc1C(C)(C)O2 [CBNA] | 0.04 | 0.0458 | 0.046 | – | – | – | – | – |
| CCCCCc1cc2c(c(O)c1C(=O)O)C=CC(C)(CCC=C(C)C)O2 (stereo not shown) [CBCA] | 0.28 | 0.102 | 0.105 | – | – | – | – | – |
| CCCc1cc2c(c(O)c1C(=O)O)[C@@H]1C=C(C)CC[C@H]1C(C)(C)O2 [THCVA] | 1.2 | 0.076 | 0.077 | – | – | – | – | – |
